The values that follow come from patent US8071383B2, “D-amino acid selection for soybean” (BASF Plant Science GmbH, priority 2006, dated 2011).

Molecules are shown by their SMILES.

Holding throughout (type): cell-based, Glycine max
Test [1] has as its system non-Agrobacterium infected soybean axillary meristem explants. Description: Killing curve for D-serine toxicity on non-inoculated seedling axillary meristem explants. The settings on record: 60 mM D-serine in SIM, 4 weeks. How it is done: Killing curves for D-serine toxicity on non-Agrobacterium infected soybean tissues were performed on axillary meristem explants. Thirty explants were prepared as described above in example 1 and cultured on SIM containing either 0 mM, 3 μM, 30 μM, 300 μM, 3 mM, 30 mM, or 60 mM D-serine for a total of 4 weeks. After this time, the percent of explants with new shoot primordia, i.e. appearance of multiple shoots, were counted. In this experiment, a reduction in regeneration occurred between 3 and 30 mM and only 30% regeneration on explants exposed to 60 mM D-serine was seen (FIG. 1).

Test [2] relates to soybean axillary meristem explants, Dairyland cultivar 98043. The experiment in a line: Kill curve with D-serine on inoculated axillary meristem explants (shoot induction and elongation). How it is done: In order to establish an effective level of selection during shoot induction and elongation a broad range of D-Serine concentrations was initially explored. Soybean axillary meristem explants were prepared from 7 day-old-seedlings from the Dairyland cultivar 98043, as described above in Examples 1 and 3.
Agrobacterium rhizogenes strain SHA017 with the Super Vir pSB1 plasmid and containing the binary plasmids pRET017 or pREW008 were prepared as described in example 2. pRET017 contains nosP-c-dsdA/na-nosT and pPcUBI-gusINT-nosT (Example 9). pREW008 contains nosP-bar-nosT and pPcUBI-gusINT-nosT and was used as a control vector (Example 9).
Explants were handled as described above in example 4. After one week on shoot induction medium (SIM) medium with no selection, explants were transferred to SIM medium containing various concentrations of D-serine ranging from 0 to 15 to 30 to 45 mM. All regenerating explants (shoot pads) were transferred to shoot elongation media (SEM) containing 3 mM D-serine after three and six weeks of incubation. Elongating shoots were transferred to rooting medium (RM) medium and screened by GUS expression and Taqman analysis.

In test [3] the test system is soybean primary node explants inoculated with REW008. Description: D-alanine and D-alanine/D-serine killing curves using primary node explants. The settings on record: Experiment 2, 0 mM D-alanine + 7.5 mM D-serine. How it is done:
Kill curves for D-alanine selection with and without 7.5 mM D-serine were conducted for future experiments using dao1 as a selectable marker gene. The combination of using D-alanine and D-serine was also performed for the dao1 gene which can metabolize both D-alanine and D-serine. The binary plasmids RET019 (Pactin-dao1, Pubi-gus) and REW008 (Pnos-bar, Pubi-gus) were used as a positive and a negative control, respectively, and the T-DNA mobilized into soybean using Agrobacterium rhizogenes strain SHA017pSB1.
Explants were inoculated with Agrobacterium, co-cultivated for 5 days, then moved onto shoot induction medium with or without selection for one week. After that time, explants were transferred onto new SIM with selection.
In experiment 1, D-alanine was added to the SIM medium at the following concentrations: 0, 3, 7.5, 10, 20, 30, and 50 mM.
In experiment 2, D-alanine was added in the same concentrations with 7.5 mM D-serine.
The experimental design was as follows: T(treatment)1: 7 explants inoculated with REW008 with 1 week recovery; T2: 7 explants inoculated with REW008 with no recovery; The results of the experiment are shown in Table 2b. […] This drop was not seen on explants with recovery until 20 mM D-alanine. When in combination with D-serine, the explants do have reduced regeneration at lower concentrations, between 7.5 and 10 mM.

As to `N[C@H](CO)C(=O)O` [D-serine], in test [1], the “percent of explants with new shoot primordia (regeneration)” value is 30%. Further, the shoot elongation entry in test [2] (3 mM D-Ser in SEM, explants coming from 30 or 45 mM D-Ser during shoot induction) was “no shoot elongation”; in test [2] (explants exposed to 15 mM D-Ser during shoot induction), “Few shoots elongated”. Further, the “Percent of explants surviving after three weeks in shoot elongation (SEM) + 3 mM D-serine” value turned out to be 82.8% in test [2] (D-Ser in SIM 0 mM, RET017); 94.7% in test [2] (D-Ser in SIM 0 mM, REW008); 74.1% in test [2] (D-Ser in SIM 15 mM, RET017); 72.1% in test [2] (D-Ser in SIM 15 mM, REW008); 33.6% in test [2] (D-Ser in SIM 30 mM, RET017); 34.5% in test [2] (D-Ser in SIM 30 mM, REW008). Moreover, the “Percent of explants surviving after three weeks in shoot elongation (SEM) + 3 mM D-serine” value in test [2] (D-Ser in SIM 45 mM, RET017) worked out at 4.9%; in test [2] (D-Ser in SIM 45 mM, REW008) it was 2.6%. Moreover, the “Percent of explants regenerating after 3 weeks in shoot induction (SIM) medium” value in test [2] (D-Ser in SIM 15 mM, explants inoculated with RET017 (nosP-dsdA)) was 78.1%; in test [2] (D-Ser in SIM 15 mM, explants inoculated with REW008 (control vector)), 76.9%; in test [2] (D-Ser in SIM 30 mM, explants inoculated with RET017 (nosP-dsdA)), 61.2%; in test [2] (D-Ser in SIM 30 mM, explants inoculated with REW008 (control vector)), 55.3%; in test [2] (D-Ser in SIM 45 mM, explants inoculated with RET017 (nosP-dsdA)), 25.5%; in test [2] (D-Ser in SIM 45 mM, explants inoculated with REW008 (control vector)), 21.9%. The “D-alanine + 7.5 mM D-serine Kill Curve-regeneration (%) after 3 weeks on SIM” value in test [3] (T1: REW008 with 1 week recovery) and in test [3] (T2: REW008 with no recovery) was 100% in each case.
